The text below walks through data of patent US9321764B2, “Dihydro-pyrrolopyridinone inhibitors” (AbbVie Inc., priority 2013, dated 2016).

In general, Ki refers to the dissociation constant of the complex between target and ligand, obtained from inhibition or displacement. Low readings indicate a stronger hold on the target, high ones a looser hold on the target.

Assay [1] deals with T1, BRD4 (BDI_K57-E168) (Homo sapiens, UniProt O60885).
T1 construct: BD1: amino acids K57-E168; made in house
Description: TR-FRET bromodomain binding assay, first bromodomain of BRD4. To be noted: His-tagged BD1, 100 nM Alexa647 probe; TR-FRET protocol A-E given per row. As to the method: (§1) A time-resolved fluorescence resonance energy transfer (TR-FRET) assay was used to determine the affinities of compounds of the Examples listed in Table 1 for each bromodomain of BRD4. His-tagged first (BD1: amino acids K57-E168) and second (BD2: amino acids E352-E168) bromodomains of BRD4 were expressed and purified. An Alexa647-labeled BET-inhibitor was used as the fluorescent probe in the assay.
(§2) Compound dilution series were prepared in DMSO via an approximately 3-fold serial dilution from one of the following:
Assay method A: 250 μM-4.2 nM
Assay method B: 0.47 mM to 7.8 nM
Assay method C: 500 μM-8.5 nM
(§3) Assay method D: 2.5 mM-800 nM
Assay method E: 0.047 mM to 0.78 nM or 5-fold serial dilution from Assay method D
For Assay methods A, C, and D: Compounds were then diluted 6:100 in assay buffer (20 mM Sodium Phosphate, pH 6.0, 50 mM NaCl, 1 mM Ethylenediaminetetraacetic acid, 0.01% Triton X-100, 1 mM DL-Dithiothreitol) to yield 3× working solutions. Six microliters (μL) of the working solution was then transferred to white, low-volume assay plates (Costar #3673). A 1.5× assay mixture containing His-tagged bromodomain, Europium-conjugated anti-His antibody (Invitrogen PV5596) and the Alexa-647-conjugated probe molecule was also prepared. Twelve μL of this solution were added to the assay plate to reach a final volume of 18 μL.
For Assay methods B and E: Compound dilutions were added directly into white, low-volume assay plates (Perkin Elmer Proxiplate 384 Plus #6008280) using a Labcyte Echo in conjunction with Labcyte Access and Thermo Multidrop CombinL robotics. Compounds were then suspended in eight microliters (μL) of assay buffer (20 mM Sodium Phosphate, pH 6.0, 50 mM NaCl, 1 mM Ethylenediaminetetraacetic acid disodium salt dihydrate, 0.01% Triton X-100, 1 mM DL-Dithiothreitol) containing His-tagged bromodomain, Europium-conjugated anti-His antibody (Invitrogen PV5596) and Alexa-647-conjugated probe.
The final concentration of 1× assay mixture for assay methods A, B, C, D, and E contains 2% DMSO, 8 nM His-tagged bromodomain, 1 nM Europium-conjugated anti-His-tag antibody and 100 nM or 30 nM probe (for BDI or BDII, respectively) and compound concentration in the range of: 5 μM-85 pM for method A, 9.19 μM 150 pM for method B, 10 μM-169 pM for method C, 50 μM-16 nM for method D, and 0.92 μM-15 pM for method E.
After a one-hour equilibration at room temperature, TR-FRET ratios were determined using an Envision multilabel plate reader (Ex 340, Em 495/520).
TR-FRET data were normalized to the means of 24 no-compound controls (“high”) and 8 controls containing 1 μM un-labeled probe (“low”). Percent inhibition was plotted as a function of compound concentration and the data were fit with the 4 parameter logistic equation to obtain IC50s Inhibition constants (Ki) were calculated from the IC50s, probe Kd and probe concentration. Typical Z′ values were between 0.65 and 0.75. The minimum significant ratio was determined to evaluate assay reproducibility (Eastwood et al., (2006) J Biomol Screen, 11: 253-261). The MSR was determined to be 2.03 for BDI and 1.93 for BDII, and a moving MSR (last six run MSR overtime) for both BDI and BDII was typically <3.
(TR-FRET usually uses a lanthanide donor and a delayed reading to cut background.)

For assay [2], the target named is T2, BRD4 (BDII_E352-M457) (Homo sapiens, UniProt O60885).
T2 construct: proliferation; Protocol; made in house
Description: TR-FRET bromodomain binding assay, second bromodomain of BRD4. To be noted: His-tagged BD2, 30 nM Alexa647 probe; TR-FRET protocol A-E given per row. As to the method: as §1, §2, §3
For Assay methods A, C, and D: Compounds were then diluted 6:100 in assay buffer (20 mM Sodium Phosphate, pH 6.0, 50 mM NaCl, 1 mM Ethylenediaminetetraacetic acid, 0.01% Triton X-100, 1 mM DL-Dithiothreitol) to yield 3× working solutions. […] Twelve μL of this solution were added to the assay plate to reach a final volume of 18 μL.
TR-FRET data were normalized to the means of 24 no-compound controls (“high”) and 8 controls containing 1 μM un-labeled probe (“low”). Percent inhibition was plotted as a function of compound concentration and the data were fit with the 4 parameter logistic equation to obtain IC50s Inhibition constants (Ki) were calculated from the IC50s, probe Kd and probe concentration. Typical Z′ values were between 0.65 and 0.75.

Regarding `Cc1c[nH]c(=O)c2c1c(-c1cc(S(C)(=O)=O)ccc1OCCC1CC1)cn2C` [Example 124, 3-[2-(2-cyclopropylethoxy)-5-(methylsulfonyl)phenyl]-1,4-dimethyl-1,6-dihydro-7H-pyrrolo[2,3-c]pyridin-7-one], the results for the Ki in assay [1] and in assay [2] were 127 nM and 104 nM, respectively.
For `Cn1cc(-c2cc(CN3CCC(C(F)(F)F)CC3)ccc2Oc2ccc(F)cc2F)c2cc[nH]c(=O)c21` [Example 129, 3-[2-(2,4-difluorophenoxy)-5-{[4-(trifluoromethyl)piperidin-1-yl]methyl]phenyl}-1-methyl-1,6-dihydro-7H-pyrrolo[2,3-c]pyridin-7-one], in that order: 1140 nM and 1190 nM.
For `Cn1cc(-c2cc(CN)ccc2Oc2ccc(F)cc2F)c2cc[nH]c(=O)c21` [Example 136, 3-[5-(aminomethyl)-2-(2,4-difluorophenoxy)phenyl]-1-methyl-1,6-dihydro-7H-pyrrolo[2,3-c]pyridin-7-one], in that order: 1090 nM and 1320 nM.
With `Cn1cc(-c2cc(CNS(=O)(=O)c3cc(Cl)sc3Cl)ccc2Oc2ccc(F)cc2F)c2cc[nH]c(=O)c21` [Example 138, 2,5-dichloro-N-[4-(2,4-difluorophenoxy)-3-(1-methyl-7-oxo-6,7-dihydro-1H-pyrrolo[2,3-c]pyridin-3-yl)benzyl]thiophene-3-sulfonamide], the Ki in assay [1] was 1150 nM; in assay [2] it was above 4000 nM.
On the same counts, the results for `Cn1cc(-c2ccccc2NCC2CC2)c2cc[nH]c(=O)c21` [Example 142, 3-{2-[(cyclopropylmethyl)amino]phenyl}-1-methyl-1,6-dihydro-7H-pyrrolo[2,3-c]pyridin-7-one] are 870 nM and 2310 nM.
For the molecule `Cn1cc(-c2cc(CS(C)(=O)=O)cnc2Cl)c2cc[nH]c(=O)c21` [Example 143, 3-{2-chloro-5-[(methylsulfonyl)methyl]pyridin-3-yl}-1-methyl-1,6-dihydro-7H-pyrrolo[2,3-c]pyridin-7-one], the Ki came to 446 nM in assay [1] and 1680 nM in assay [2].
Regarding `Cn1cc(-c2cc(F)cnc2Nc2ccc(F)cc2)c2cc[nH]c(=O)c21` [Example 145, 3-{5-fluoro-2-[(4-fluorophenyl)amino]pyridin-3-yl}-1-methyl-1,6-dihydro-7H-pyrrolo[2,3-c]pyridin-7-one], the Ki in assay [1] was 174 nM; in assay [2], 296 nM.
On the same counts, the results for `Cn1cc(-c2cc(N)ccc2Oc2ccc(F)cc2F)c2cc[nH]c(=O)c21` [Example 146, 3-[5-amino-2-(2,4-difluorophenoxy)phenyl]-1-methyl-1,6-dihydro-7H-pyrrolo[2,3-c]pyridin-7-one] are 25.3 nM and 90.1 nM.
Take `CC(C)CCC(=O)Nc1ccc(Oc2ccc(F)cc2F)c(-c2cn(C)c3c(=O)[nH]ccc23)c1` [Example 147, N-[4-(2,4-difluorophenoxy)-3-(1-methyl-7-oxo-6,7-dihydro-1H-pyrrolo[2,3-c]pyridin-3-yl)phenyl]-4-methylpentanamide]: the Ki in assay [1] stood at 59.4 nM; in assay [2], 134 nM.
For `COc1ccccc1CC(=O)Nc1ccc(Oc2ccc(F)cc2F)c(-c2cn(C)c3c(=O)[nH]ccc23)c1` [Example 149, N-[4-(2,4-difluorophenoxy)-3-(1-methyl-7-oxo-6,7-dihydro-1H-pyrrolo[2,3-c]pyridin-3-yl)phenyl]-2-(2-methoxyphenyl)acetamide], in that order: 41.6 nM and 54 nM.
As to `Cn1cc(-c2cc(NC(=O)c3ccccn3)ccc2Oc2ccc(F)cc2F)c2cc[nH]c(=O)c21` [Example 150, N-[4-(2,4-difluorophenoxy)-3-(1-methyl-7-oxo-6,7-dihydro-1H-pyrrolo[2,3-c]pyridin-3-yl)phenyl]pyridine-2-carboxamide], the Ki in assay [1] was found to be 22 nM; in assay [2], 145 nM.
